Consider two compounds from US20120156185A1, “NUTRITIONAL COMPOSITIONS COMPRISING CITRUS FIBERS” (HERBAMED LTD., priority 2009, published 2012).

Values joined by “and” are separate entries in the source; they are usually repeats but may differ in a detail not shown here. Equal values may be shown once.

The nature of this assay: Oxygen radical absorbance capacity (ORAC) assay. As for the experimental part: ORAC assay for fresh orange crush and dry flake extracts was carried out following the modified procedure of the method previously described by Prior et al (Prior R L. et al. 2003. J Agric Food Chem 5, 3273-3279). This assay measures the ability of antioxidant components in test materials to inhibit the decline in disodium fluorescein (FL) fluorescence that is induced by the peroxyl radical generator 2′,2′-Azobis (2-amidinopropane) dihydrochloride (AAPH). The reaction was obtained on fluorescent plate reader (Synergy HT, Bio-Tek Instruments, Winooski, Vt., USA). The mixture contained in the final assay mixture 200 μL of total volume, FL, 120 μL, […] and AAPH, 60 μL 32 mM final concentration. All reagents were prepared with 75 mM phosphate buffer, pH 7.4. FL, phosphate buffer and samples were pre-incubated at 37° C. for 15 min. The reaction was started by the addition of AAPH. Fluorescence was measured and recorded every 1.5 min at excitation length of 485 nm and emission length of 535 nm, until the fluorescence of the last reading declined to a value of less than or equal to 5% of the first reading. Phosphate buffer was used as a blank and 2.5-40 μM trolox were used as positive control standards. The final ORAC values were calculated by using a regression equation between the trolox concentration and the net area under the FL decay curve and were expressed as trolox equivalents (TE) as μmole per 100 g of fresh weight (FW) or dry weight (DW).
In both compounds the measured inhibition time was directly proportional to the concentration of the antioxidant. In the tasted concentration range 2.5, 5.0, 10.0 μM of trolox the Tinh were 14.6, 20.9, and 25.5 respectively. For comparison Tinh for 2.5, 5.0, 10.0 μM of hesperidin were 26.8, 45.0 and 62.5 min respectively. […] In ORAC assay Tinh measures the ability of antioxidant components in test materials to inhibit the decline in disodium fluorescein (FL) fluorescence that is induced by the peroxyl radical generator 2′,2′-Azobis (2-amidinopropane) dihydrochloride (AAPH). Tinh for 10 μM of hesperidin and 10 μM of trolox were 62.5 and 23.5 min respectively. […] Higher correlation was observed between Hesperidin concentration and its antioxidant capacity.

For the compound `COc1ccc([C@@H]2CC(=O)c3c(O)cc(O[C@@H]4O[C@H](CO[C@@H]5O[C@@H](C)[C@H](O)[C@@H](O)[C@H]5O)[C@@H](O)[C@H](O)[C@H]4O)cc3O2)cc1O` [hesperidin], the “Tinh (inhibition time, antioxidant capacity)” value runs as follows: (2.5 μM) 26.8 min; (5.0 μM) 45.0 min; (10 μM) 62.5 min.

As to `Cc1c(C)c2c(c(C)c1O)CCC(C)(C(=O)O)O2` (stereo not drawn) [trolox, 6-hydroxy-2,5,7,8,-tetramethylchroman-2-carboxylic acid], the “Tinh (inhibition time, antioxidant capacity)” value is 14.6 min (2.5 μM); 20.9 min (5.0 μM); 25.5 min and 23.5 min (10 μM).
